For 27 compounds, AC50 results are on record in patent US20250145635A1, “COMPOUND CONTAINING BIS(AZANYLYLIDENE) SULFONYL STRUCTURE AND USE THEREOF IN MEDICINE” (SCINNOHUB PHARMACEUTICAL CO., LTD., priority 2021, published 2025).

What is called AC50 is the concentration giving half of the maximal activity seen.

For the test, the target named is recombinant human PKR enzyme (Homo sapiens (Human), UniProt P30613). Kind of test: Pyruvate kinase (PKR) activity experiment. It is filed as biochemical. Conditions: activation of recombinant human PKR enzyme. On the procedure: • 1). A recombinant human PKR enzyme solution was formulated at a concentration of 60 ng/well (a 20 μL reaction system), and 5 μL of the solution was added into each well of a black transparent bottom 384-well plate. • 2). Compound solutions were formulated at different concentrations, with the final concentrations of 1000/300/100 nM (containing 1% DMSO). Each 5 μL of the compound solution was added into the plate in item 3.1 and mixed well. The plate was incubated at room temperature for 10 min. • 3). A reaction system was formulated according to the instructions of a kit (as shown in the table below), and 10 μL of the reaction system was added into each well of the 384-well plate, and mixed uniformly with the solution in item 3.2.
Chain of recombinant human PKR enzyme (P30613 whole entry): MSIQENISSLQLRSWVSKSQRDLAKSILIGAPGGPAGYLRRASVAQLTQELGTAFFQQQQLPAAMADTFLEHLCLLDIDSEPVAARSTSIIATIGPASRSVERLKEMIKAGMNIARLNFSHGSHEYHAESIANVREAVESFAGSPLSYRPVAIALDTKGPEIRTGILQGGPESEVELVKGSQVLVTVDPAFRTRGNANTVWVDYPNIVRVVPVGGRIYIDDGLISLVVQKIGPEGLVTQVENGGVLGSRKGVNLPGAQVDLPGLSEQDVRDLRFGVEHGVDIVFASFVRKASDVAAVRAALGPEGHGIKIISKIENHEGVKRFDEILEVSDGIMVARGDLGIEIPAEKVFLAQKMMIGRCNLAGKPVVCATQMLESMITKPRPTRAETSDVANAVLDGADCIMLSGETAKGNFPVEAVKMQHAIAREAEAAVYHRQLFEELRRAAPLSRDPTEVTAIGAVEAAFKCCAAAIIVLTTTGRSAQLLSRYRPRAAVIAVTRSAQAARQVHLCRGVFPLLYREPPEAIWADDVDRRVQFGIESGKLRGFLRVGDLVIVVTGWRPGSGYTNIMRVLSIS
• 4). The 384-well plate was placed on a microplate reader to detect the fluorescence value at 540/590 nm, where the value was read every 2 minutes and the detection was conducted continuously for 1 hour. • 5). The Slope value within the detection time was calculated, and the 0.1% DMSO well was used as a control well to calculate a compound activation rate.
[formula] • 6). Fitting dose-effect curve
With the log value of the compound concentration as the X axis and the percentage activation rate as the Y axis, a dose-effect curve was fitted with the log(agonist) vs. response-variable slope of the analysis software GraphPad Prism 5, and the AC50 value of the activity of each compound against PKR was obtained.

As for `Cc1nc2ccc(S(=O)(=O)N3CC(=C4CN(C(=O)[C@H](CO)c5ccccc5)C4)C3)cc2s1` [Compound 35, (S)-3-hydroxy-1-(1′-((2-methylbenzo[d]thiazol-6-yl)sulfonyl)-1′,4′-dihydro-2H,2′H-[3,3′-diazetidinylidene]-1(4H)-yl)-2-phenylpropan-1-one], the AC50 is < 100 nM.
For `O=C([C@@H](CO)c1ccc(F)cc1)N1CC(=C2CN(S(=O)(=O)c3ccccn3)C2)C1` [Compound 55, (R)-2-(4-fluorophenyl)-3-hydroxy-1-(1′-(pyridin-2-ylsulfonyl)-1′,4′-dihydro-2H,2′H-[3,3′-diazetidinylidene]-1(4H)-yl)propan-1-one], the AC50 is 300 to 1000 nM.
Then `O=C([C@H](CO)c1ccccc1)N1CC(=C2CN(S(=O)(=O)c3cccc4cccnc34)C2)C1` [Compound 69, (S)-3-hydroxy-2-phenyl-1-(1′-(quinolin-8-ylsulfonyl)-1′,4′-dihydro-2H,2′H-[3,3′-diazetidinylidene]-1(4H)-yl)propan-1-one], with < 100 nM.
In the case of `O=C([C@H](CO)c1ccccc1)N1CC(=C2CN(S(=O)(=O)c3ccc(Cl)cn3)C2)C1` [Compound 66], the AC50 lay in the range of 101 to 300 nM.
Under `O=C(C(CO)c1ccc(F)cc1)N1CC(=C2CN(S(=O)(=O)c3ccc4c(c3)OC(F)(F)O4)C2)C1` (stereo not drawn) [Compound 36, 1-(1′-((2,2-difluorobenzo[d][1,3]dioxolan-5-yl)sulfonyl)-1′,4′-dihydro-2H,2′H-[3,3′-diazetidinylidene]-1(4H)-yl)-2-(4-fluorophenyl)-3-hydroxypropan-1-one] stands 300 to 1000 nM.
Consider `O=C([C@@H](CO)c1ccc(F)cc1)N1CC(=C2CN(S(=O)(=O)c3ccc4ncsc4c3)C2)C1` [Compound 51, (R)-1-(1′-(benzo[d]thiazol-6-ylsulfonyl)-1′,4′-dihydro-2H,2′H-[3,3′-diazetidinylidene]-1(4H)-yl)-2-(4-fluorophenyl)-3-hydroxypropan-1-one], for which the AC50 lay in the range of 300 to 1000 nM.
As for `O=C(C(CO)c1ccc2ccccc2c1)N1CC(=C2CN(S(=O)(=O)c3ccc4ncsc4c3)C2)C1` (stereo not drawn) [Compound 32, 1-(1′-(benzo[d]thiazol-6-ylsulfonyl)-1′,4′-dihydro-2H,2′H-[3,3′-diazetidinylidene]-1(4H)-yl)-3-hydroxy-2-(naphthalene-2-yl)propan-1-one], the AC50 is < 100 nM.
For `O=C(C(CO)C1CCCCC1)N1CC(=C2CN(S(=O)(=O)c3ccccn3)C2)C1` (stereo not drawn) [Compound 90, 2-cyclohexyl-3-hydroxy-1-(1′-(pyridin-2-ylsulfonyl)-1′,4′-dihydro-2H,2′H-[3,3′-diazetidinylidene]-1(4H)-yl)propan-1-one], the AC50 lay within 101 to 300 nM.
Take `O=C(C(CO)c1ccc(Cl)cc1)N1CC(=C2CN(S(=O)(=O)c3ccccn3)C2)C1` (stereo not drawn) [Compound 75, 2-(4-chlorophenyl)-3-hydroxy-1-(1′-(pyridin-2-ylsulfonyl)-1′,4′-dihydro-2H,2′H-[3,3′-diazetidinylidene]-1(4H)-yl)propan-1-one]: the AC50 is 101 to 300 nM.
Take `O=C([C@H](CO)c1ccccc1)N1CC(=C2CN(S(=O)(=O)c3cccnc3)C2)C1` [Compound 68, (S)-3-hydroxy-2-phenyl-1-(1′-(pyridin-3-ylsulfonyl)-1′,4′-dihydro-2H,2′H-[3,3′-diazetidinylidene]-1(4H)-yl)propane-1-one]: the AC50 lay in the range of 300 to 1000 nM.
For the compound `Cc1nc2c(C(O)C(=O)N3CC(=C4CN(S(=O)(=O)c5ccc(OC(F)F)cc5)C4)C3)cccc2s1` (stereo not drawn) [Compound 24, 1-(1′-((4-(difluoromethoxy)phenyl)sulfonyl)-1′,4′-dihydro-2H,2′H-[3,3′-diazetidinylidene]-1(4H)-yl)-2-hydroxy-2-(2-methylbenzo[d]thiazol-4-yl)ethan-1-one], the AC50 fell in the range of 300 to 1000 nM.
Then `CN(C)CC(C(=O)N1CC(=C2CN(S(=O)(=O)c3ccc4ncsc4c3)C2)C1)c1ccc(F)c(Cl)c1` (stereo not drawn) [Compound 42, 1-(1′-(benzo[d]thiazol-6-ylsulfonyl)-1′,4′-dihydro-2H,2′H-[3,3′-diazetidinylidene]-1(4H)-yl)-2-(3-chloro-4-fluorophenyl)-3-(dimethylamino)propan-1-one], with 300 to 1000 nM; and `[2H]C([2H])([2H])Oc1ccc(S(=O)(=O)N2CC(=C3CN(C(=O)[C@H](CO)c4ccccc4)C3)C2)nc1` [Compound 91, (S)-3-hydroxy-1-(1′-((5-(methoxy-d3)pyridin-2-yl)sulfonyl)-1′,4′-dihydro-2H,2′H-[3,3′-diazetidinylidene]-1(4H)-yl)-2-phenylpropan-1-one], with < 100 nM.
With `NC(C(=O)N1CC(=C2CN(S(=O)(=O)c3ccc(OC(F)F)cc3)C2)C1)c1cccc(C(F)(F)F)c1` (stereo not drawn) [Compound 23, 2-amino-1-(1′-((4-(difluoromethoxy)phenyl)sulfonyl)-1′,4′-dihydro-2H,2′H-[3,3′-diazetidinylidene]-1(4H)-yl)-2-(3-(trifluoromethyl)phenyl)ethan-1-one], the AC50 was 300 to 1000 nM.
As to `O=C(C(CO)c1ccc(F)c(Cl)c1)N1CC(=C2CN(S(=O)(=O)c3ccccn3)C2)C1` (stereo not drawn) [Compound 59, 2-(3-chloro-4-fluorophenyl)-3-hydroxy-1-(1′-(pyridin-2-ylsulfonyl)-1′,4′-dihydro-2H,2′H-[3,3′-diazetidinylidene]-1(4H)-yl)propan-1-one], the AC50 is 101 to 300 nM.
Under `Cn1cc(-c2ccc(C(CO)C(=O)N3CC(=C4CN(S(=O)(=O)c5ccc6ncsc6c5)C4)C3)cc2)cn1` (stereo not drawn) [Compound 34, 1-(1′-(benzo[d]thiazol-6-ylsulfonyl)-1′,4′-dihydro-2H,2′H-[3,3′-diazetidinylidene]-1(4H)-yl)-3-hydroxy-2-(4-(1-methyl-1H-pyrazol-4-yl)phenyl)propan-1-one] stands 300 to 1000 nM.
As for `O=C([C@H](CO)c1ccccc1)N1CC(=C2CN(S(=O)(=O)c3ccc4c(n3)OCCO4)C2)C1` [Compound 49, (S)-1-(1′-((2,3-dihydro-[1,4]dioxino[2,3-b]pyridin-6-yl)sulfonyl)-1′,4′-dihydro-2H,2′H-[3,3′-diazetidinylidene]-1(4H)-yl)-3-hydroxy-2-phenylpropan-1-one], the AC50 was < 100 nM.
With `O=C(C(CO)c1ccc(C(F)F)cc1)N1CC(=C2CN(S(=O)(=O)c3ccccn3)C2)C1` (stereo not drawn) [Compound 71, 2-(4-(difluoromethyl)phenyl)-3-hydroxy-1-(1′-(pyridin-2-ylsulfonyl)-1′,4′-dihydro-2H,2′H-[3,3′-diazetidinylidene]-1(4H)-yl)propan-1-one], the AC50 is < 100 nM.
As for `COc1ccc(S(=O)(=O)N2CC(=C3CN(C(=O)[C@H](CO)c4ccc(F)cc4F)C3)C2)nc1` [Compound 87, (S)-2-(2,4-difluorophenyl)-3-hydroxy-1-(1′-((5-methoxypyridin-2-yl)sulfonyl)-1′,4′-dihydro-2H,2′H-[3,3′-diazetidinylidene]-1(4H)-yl)propan-1-one], the AC50 was < 100 nM.
Turning to `NC(C(=O)N1CC(=C2CN(S(=O)(=O)c3ccc(OC(F)F)cc3)C2)C1)c1ccc(F)cc1` (stereo not drawn) [Compound 22, 2-amino-1-(1′-((4-(difluoromethoxy)phenyl)sulfonyl)-1′,4′-dihydro-2H,2′H-[3,3′-diazetidinylidene]-1(4H)-yl)-2-(4-fluorophenyl)ethan-1-one], the AC50 was 300 to 1000 nM.
Take `CCOc1ccc(S(=O)(=O)N2CC(=C3CN(C(=O)[C@H](CO)c4ccccc4)C3)C2)nc1` [Compound 72, (S)-1-(1′-((5-ethoxypyridin-2-yl)sulfonyl)-1′,4′-dihydro-2H,2′H-[3,3′-diazetidinylidene]-1(4H)-yl)-3-hydroxy-2-phenylpropan-1-one]: the AC50 is < 100 nM.
Under `O=C(N1CC(=C2CN(S(=O)(=O)c3ccc(OC(F)F)cc3)C2)C1)C1(c2ccccc2)CCOC1` (stereo not drawn) [Compound 37, (1′-((4-(difluoromethoxy)phenyl)sulfonyl)-1′,4′-dihydro-2H,2′H-[3,3′-diazetidinylidene]-1(4H)-yl)(3-phenyltetrahydrofuran-3-yl)methanone] stands < 100 nM; under `N#Cc1ccc(S(=O)(=O)N2CC(=C3CN(C(=O)[C@H](CO)c4ccccc4)C3)C2)nc1` [Compound 70, (S)-6-((1′-(3-hydroxy-2-phenylpropionyl)-1′,4′-dihydro-2H,2′H-[3,3′-diazetidinylidene]-1(4H)-yl)sulfonyl)nicotinonitrile], 300 to 1000 nM; under `O=C(C(CO)c1cccc(F)c1)N1CC(=C2CN(S(=O)(=O)c3ccc4ncsc4c3)C2)C1` (stereo not drawn) [Compound 46, 1-(1′-(benzo[d]thiazol-6-ylsulfonyl)-1′,4′-dihydro-2H,2′H-[3,3′-diazetidinylidene]-1(4H)-yl)-2-(3-fluorophenyl)-3-hydroxypropan-1-one], < 100 nM.
Under `O=C([C@H](CO)c1ccccc1)N1CC(=C2CN(S(=O)(=O)c3ccc(F)cc3)C2)C1` [Compound 10] stands 101 to 300 nM; under `CC(C)(O)C(C(=O)N1CC(=C2CN(S(=O)(=O)c3ccc(OC(F)F)cc3)C2)C1)c1ccccc1` (stereo not drawn) [Compound 17, 1-(1′-((4-(difluoromethoxy)phenyl)sulfonyl)-1′,4′-dihydro-2H,2′H-[3,3′-diazetidinylidene]-1(4H)-yl)-3-hydroxy-3-methyl-2-phenylbutan-1-one], 300 to 1000 nM; under `O=C(C(O)c1ccc2c(c1)NCCO2)N1CC(=C2CN(S(=O)(=O)c3ccc(OC(F)F)cc3)C2)C1` (stereo not drawn) [Compound 13, 1-(1′-((4-(difluoromethoxy)phenyl)sulfonyl)-1′,4′-dihydro-2H,2′H-[3,3′-diazetidinylidene]-1(4H)-yl)-2-(3,4-dihydro-2H-benzo[b][1,4]oxazin-6-yl)-2-hydroxyethan-1-one], < 100 nM.
